Experimental findings from patent US8912144B2, “Method for treating stroke via administration of NEP1-40 and inosine” (Children's Medical Center Corporation, priority 2003, dated 2014) are described below.

Entries after “also recorded” stand apart in the source; their conditions may differ.

Holding throughout (assay type): in vivo, rat
The test system of test [1] is activated caspase-3. Briefly: Activated caspase-3 profiles at the periphery of the stroke. Particulars: standardized area on the periphery of the stroke. On the procedure:
A photothrombotic stroke model was used to generate unilateral ischemic lesions centered in the forelimb motor area of the cortex. The infarct area was determined using stereotaxic coordinates and was verified by histological analysis. Lesions were restricted to one hemisphere and included the caudal forelimb area of the primary motor cortex along with varying amounts of adjacent cortex (FIG. 10A and FIGS. 15 and 16). Lesion size varied among animals in each group, but there were no systematic between-group differences (lesion size [in pixels]=85.4±8.2 d [mean±S.E.M] for the saline-treated group and 81.1±8.6 for the inosine-treated group: difference not significant). […] This conclusion is further supported by the absence of any difference between inosine- and saline-treated cases in the number and size of profiles expressing activated caspase-3, as quantified focally in a standardized area on the periphery of the stroke (Caspase-3 profiles in saline-treated group=11.8±1.1, and in inosine treated group=11.9±1.5).

The nature of test [2]: Skilled forelimb-reaching (food pellet retrieval) task after stroke. Particulars: for food pellet retrieval with impaired paw, % of baseline: long-term study. On the procedure: All procedures were carried out in accordance with NIH Guidelines with the approval of Children's Hospital Animal Care and Use Committee. Unilateral in-farcts were induced in the sensorimotor cortex of adult Sprague-Dawley rats (275-300 g; Charles River Laboratories, Wilmington, Mass.) using the photothrombotic model of focal ischemia (Markgraf et al., 1993). Briefly, rats were anesthetized with a combination of ketamine (75 mg/kg) and Domitor (medetomidine; 0.5 mg/kg) and a 15 mm skin incision was made at the midline rostral to the posterior suture. A craniotomy was performed over the sensorimotor cortex using a hand-held drill to open a window that spanned medio-laterally between the sagittal sinus and temporal ridge, and rostro-caudally between Bregma +2.5 mm and Bregma −3.5 mm. The photosensitive dye Rose Bengal was injected into the femoral vein, and a fiber-optic cable connected to a xenon light source was centered over the craniotomy, focusing light directly on the exposed region of the brain for 30 minutes. A green filter fitted over the bulb restricted illumination to ˜525 nm, a wavelength that excites Rose Bengal and causes it to release free radical species. The subsequent damage to endothelial cells in exposed portions of the cortical vasculature causes platelet aggregation, resulting in severe focal ischemia. […] Control animals were generated using the same surgical procedure but without photo-activation of Rose Bengal. Animals with strokes were randomly assigned to receive a continuous infusion of either saline (0.9%, Baxter Scientific; n=12), inosine (50 mM in saline, Sigma-Aldrich Co., St. Louis, Mo.; n=12), NEP1-40 (500 μM in 2.5% DMSO/97.5% saline; n=12), or inosine +NEP1-40 (n=12) into the cisterna magna using osmotic minipumps (0.25 μl/h, Alzet model 2004, Durect Corpora-tion, Palo Alto, Calif.). In addition to these, a separate set of animals with the same 4 groups (n=12 in each) was created for a long-term behavioral study. Because CSF drug concentrations presumably require several hours to achieve steady-state levels when delivered via slow-releasing osmotic pumps, all animals received a 25 μl intraventricular bolus of the appropriate agent prior to pump placement. Pumps were tucked between the shoulder blades and infusion needles were secured onto the cranium with a silicon-based glue. The incision was closed with silk sutures and cleaned with betadine and ethanol pads. For 72 hours following surgery, animals received twice-daily, subcu-taneous injections of Buprenex (buprenorphine; Reckitt Benkiser Pharmaceuticals Inc., Richmond, Va.) for pain management.
In animals in which both behavioral testing and anatomical tracing was performed, animals were tested at 7, 14, 21, and 28 days after surgery, whereas in the long-term behavioral study, minipumps were removed after 4 weeks and testing was continued weekly for another 4 weeks. All testing was done by an experimenter blind to the animals' treatments. A skilled forelimb-reaching task was used to test functional recovery after stroke. The task requires the rat to reach with either paw through a narrow slit in a Plexiglas box, grasp a banana-flavored food pellet (Bio-Serv, Inc., Frenchtown, N.J.) from a platform, and bring it successfully to the mouth (Allred and Jones, 2004; Luke et al., 2004). Three days prior to and during training, animals were maintained on a restricted diet of banana-flavored pellets to remove novelty-induced hesitation and to increase motivation. Rats were trained 30-60 minutes per day with each paw for two weeks or until they reached a baseline performance of 20-30 successful reaches in a two-minute period. At the end of the training period but prior to surgery, each animal was tested for the number of pellets it successfully grasped and ate in a two-minute trial, making certain that animals were motivated and stress-free. […]

For test [3], the system named is C1q, C3, metallothionein. Briefly: Immunohistochemistry for C1q, C3 and metallothionein in layer 5 of the uninjured forelimb motor cortex. Particulars: 7 days after stroke. On the procedure:
To investigate whether some of the changes seen in the microarray study translate into differences at the protein level, immunohistochemistry was performed for C1q, C3, and metallothionein (Study VII). […] Immunohistochemistry was used to investigate whether inosine-induced changes found at the mRNA level translate into changes at the protein level. Analyses were carried out in layer 5 of the uninjured forelimb motor cortex 7 days after a stroke was induced in the corresponding region of the contralateral hemisphere. Inosine induced changes in levels of complement proteins C1q (a) and C3 (b) and metallothionine (c).

A short description of test [4]: Basso-Beatty-Bresnahan (BBB) locomotor test after dorsal hemisection of the spinal cord. As to conditions: i.c.v. (50 mM, 0.25 μl/hour) or i.v. (260 mM, 10 μl/hour) for 4 weeks. On the procedure:
(§1) To test the effects of inosine on spinal cord injury, the dorsal half of the spinal cord in rats was transected, severing the descending CST and other pathways. CST loss severely disrupted fine, skilled behaviors. Inosine was then administered either intra-cerebroventricularly (50 mM, 0.25 μl/hour) or intravenously (260 mM, 10 μl/hour) for 4 weeks. […] Complete transection of the corticospinal tract was verified histologically. The effectiveness of inosine was clinically relevant, since it avoids the risk of intracerebral infection.

The nature of test [5]: Horizontal (irregular) ladder walk after dorsal hemisection of the spinal cord. Particulars: i.c.v. (50 mM, 0.25 μl/hour) or i.v. (260 mM, 10 μl/hour) for 4 weeks. The procedure:
as §1

The subject of test [6] is raphespinal fibers and corticospinal tract axons. Briefly: Anatomical sprouting of raphespinal and corticospinal tract axons after spinal cord injury. Particulars: after dorsal hemisection. The procedure:
as §1

The mark [7] stands for this setting: layer 5 of undamaged hemisphere.
The mark [8] stands for this setting: layer 5 of undamaged hemisphere, vs saline.

Molecule `OC[C@H]1O[C@@H](n2cnc3c(O)ncnc32)[C@H](O)[C@@H]1O` [inosine] registered a Caspase-3 profiles in test [1] of 11.9±1.5. In addition, the “food pellet retrieval with impaired paw, outcome in words” value (“food pellet retrieval … in words” for short) in test [2] (4-week study) was “superior to that of controls at 1 week”. For the same molecule, the “food pellet retrieval … in words” value in test [2] (eight-week (long-term) study) is “significantly better than that of saline-treated controls from week 2 on”. The “food pellet retrieval … in words” value in test [2] (eight-week (long-term) study, listed as Inosine) is “strongly enhanced the effect of NEP1-40”. Further, in test [2] (week eight (4 weeks after pump removal)), the “food pellet retrieval with impaired paw, % of baseline” value is about 80%. Further, the “food pellet retrieval with impaired paw, % of baseline” value in test [2] (week four) is given as about 70%. In test [2] (paw ipsilateral to the stroke), the “performance with the unaffected (unimpaired) paw” value was “performed normally; also recorded: No differences were detected”. The “food pellet retrieval with impaired paw, percentage of baseline (pre-operative) level” value in test [2] (week 4 after stroke, 4-week study) is reported as “approximately 80%”. The “metallothionine positively staining profiles per field” value in test [3] was 17.9±0.8. In test [3] (vs saline), the “increase of number of metallothionine positively staining profiles per field” value is 28%. In addition, in test [3] (setting [7]), the “C1q average grain pixel density” value came to 5654±894 and the “C3 average grain pixel density” value amounted to 1377±101. Besides, in test [3] (setting [8]), the “increase of C1q staining intensity” value stood at 75% and the “increase of C3 staining intensity” value is 37%. Besides, the “performance on BBB test for general locomotor activity” value in test [4] is “enhanced performance; also recorded: returned to near-normal level of performance”. Also, in test [5], the “performance on horizontal ladder walk” value is “enhanced performance; also recorded: far superior to saline-treated controls”. In addition, in test [6], the “long-distance corticospinal tract regeneration” value was “modest effects”, the “sprouting of corticospinal tract axons rostral to the injury site” value is recorded as “enhanced the sprouting” and the “sprouting of raphespinal fibers distal to the injury site” value is “enhanced the sprouting”.
